Test results: ChEMBL document CHEMBL5131465, “Pyrazoline analogues: Design, synthesis, and evaluation of anti-osteoporosis activity” (Bioorg Med Chem Lett, 2022)
Calls of active or inactive are those of the source.

Key:
Assay type in all cases: functional, cell-based
[1] = test system: Calvarial osteoblast; assay: Induction of osteoblast differentiation in mouse calvarial osteoblasts assessed as increase in BMP2 protein expression at 1 to 100 pM after 48 hrs by western blot analysis; details: dose 1-100 pM
[2] = test system: HBMSC; assay: Induction of new bone formation in BMSC cells (unknown origin) assessed as increase in formation of mineralized nodules at 1 to 100 pM; details: Homo sapiens, dose 1-100 pM
[3] = test system: Calvarial osteoblast; assay: Cytoprotective activity against serum deprivation-induced apoptosis in mouse calvarial osteoblasts assessed as reduction in apoptotic cells at 1 to 100 pM by Annexin/PI staining based flow cytometric analysis; details: dose 1-100 pM
[4] = test system: Calvarial osteoblast; assay: Induction of osteoblast differentiation in mouse calvarial osteoblasts assessed as increase in RUNX2 protein expression at 1 to 100 pM after 48 hrs by western blot analysis; details: dose 1-100 pM
[5] = test system: Calvarial osteoblast; assay: Cytoprotective activity against serum deprivation-induced apoptosis in mouse calvarial osteoblasts assessed as reduction in BAX protein expression at 1 to 100 pM by western blot analysis; details: dose 1-100 pM
[6] = test system: Calvarial osteoblast; assay: Induction of osteoblast differentiation in mouse calvarial osteoblasts assessed as increase in ALP activity at 0.000001 to 1 uM by spectrophotometric analysis; details: dose lower 1e-06 µM, dose upper 1.0 µM
[7] = test system: Calvarial osteoblast; assay: Induction of osteoblast differentiation in mouse calvarial osteoblasts assessed as increase in Type-1 collagen protein expression at 1 to 100 pM after 48 hrs by western blot analysis; details: dose 1-100 pM
[8] = test system: Calvarial osteoblast; assay: Induction of new bone formation in mouse calvarial osteoblasts assessed as increase in intracellular calcium level at 1 to 100 pM by Fluo-4AM dye based assay; details: dose 1-100 pM
[9] = test system: Calvarial osteoblast; assay: Induction of osteoblast differentiation in mouse calvarial osteoblasts assessed as increase in BMP2 mRNA expression at 1 to 100 pM after 48 hrs by qPCR analysis; details: dose 1-100 pM
[10] = test system: Calvarial osteoblast; assay: Induction of osteoblast differentiation in mouse calvarial osteoblasts assessed as increase in Type-1 collagen mRNA expression at 1 to 100 pM after 48 hrs by qPCR analysis; details: dose 1-100 pM
[11] = test system: Calvarial osteoblast; assay: Induction of osteoblast differentiation in mouse calvarial osteoblasts assessed as increase in cell viability at 0.000001 to 1 uM by MTT assay; details: dose lower 1e-06 µM, dose upper 1.0 µM
[12] = test system: Calvarial osteoblast; assay: Cytoprotective activity against serum deprivation-induced apoptosis in mouse calvarial osteoblasts assessed as increase in Bcl-2 protein expression at 1 to 100 pM by western blot analysis; details: dose 1-100 pM
[13] = test system: Calvarial osteoblast; assay: Induction of osteoblast differentiation in mouse calvarial osteoblasts assessed as increase in RUNX-2 mRNA expression at 1 to 100 pM after 48 hrs by qPCR analysis; details: dose 1-100 pM

Measured: Activity

CC1(C)C=Cc2ccc(O)c(C3=NNC(c4ccc(Cl)cc4)C3)c2O1 (stereo not drawn)
active: all assays above

CC(=O)N1N=C(c2c(O)ccc3c2OC(C)(C)C=C3)CC1c1ccc(Cl)cc1 (stereo not drawn)
active: [6]

CC(C)=CCC1(C)C=Cc2ccc(O)c(C(=O)/C=C/c3ccc(Cl)cc3)c2O1 (stereo not drawn)
active: [6]

CC1(C)C=Cc2c(ccc(C3=NN(c4ccccc4)C(c4ccc(Cl)cc4)C3)c2O)O1 (stereo not drawn)
active: [6]

CC1(C)C=Cc2c(ccc(C(=O)/C=C/c3ccc(Cl)cc3)c2O)O1
active: [6]

CC1(C)C=Cc2ccc(O)c(-c3cc(-c4ccc(Cl)cc4)on3)c2O1
active: [6]
